According to US20240101528A1, “SUBSTITUTED PYRAZOLO PIPERIDINE CARBOXYLIC ACIDS” (BAYER AKTIENGESELLSCHAFT, priority 2020, published 2024):
Structures can show the parent of a compound that is named as a salt.

Key:
[1] = biological target: T1, recombinant guanylate cyclase reporter cell line (Rattus norvegicus, UniProt P20595); test: Effect on a recombinant guanylate cyclase reporter cell line; type: cell-based; settings: for MEC: minimum effective concentration
T1 construct: expressed in transfected cells
T1 sequence (P20595 1-619): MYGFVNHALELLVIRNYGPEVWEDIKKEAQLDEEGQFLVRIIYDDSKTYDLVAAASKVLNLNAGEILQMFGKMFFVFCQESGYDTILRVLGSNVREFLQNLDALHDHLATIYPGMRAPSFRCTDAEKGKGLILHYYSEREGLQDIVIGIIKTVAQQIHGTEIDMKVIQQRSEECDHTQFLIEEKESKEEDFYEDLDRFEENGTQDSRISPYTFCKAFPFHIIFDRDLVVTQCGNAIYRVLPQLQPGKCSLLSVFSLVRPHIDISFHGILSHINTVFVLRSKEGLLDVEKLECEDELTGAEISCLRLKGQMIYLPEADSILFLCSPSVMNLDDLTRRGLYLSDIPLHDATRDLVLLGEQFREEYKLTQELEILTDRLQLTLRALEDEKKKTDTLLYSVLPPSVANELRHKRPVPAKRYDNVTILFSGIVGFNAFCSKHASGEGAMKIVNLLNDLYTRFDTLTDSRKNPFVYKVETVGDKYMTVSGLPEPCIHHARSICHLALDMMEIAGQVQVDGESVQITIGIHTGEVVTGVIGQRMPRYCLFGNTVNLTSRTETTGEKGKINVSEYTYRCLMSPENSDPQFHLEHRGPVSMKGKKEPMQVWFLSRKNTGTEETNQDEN
T1 sequence (P19686 1-690 partner): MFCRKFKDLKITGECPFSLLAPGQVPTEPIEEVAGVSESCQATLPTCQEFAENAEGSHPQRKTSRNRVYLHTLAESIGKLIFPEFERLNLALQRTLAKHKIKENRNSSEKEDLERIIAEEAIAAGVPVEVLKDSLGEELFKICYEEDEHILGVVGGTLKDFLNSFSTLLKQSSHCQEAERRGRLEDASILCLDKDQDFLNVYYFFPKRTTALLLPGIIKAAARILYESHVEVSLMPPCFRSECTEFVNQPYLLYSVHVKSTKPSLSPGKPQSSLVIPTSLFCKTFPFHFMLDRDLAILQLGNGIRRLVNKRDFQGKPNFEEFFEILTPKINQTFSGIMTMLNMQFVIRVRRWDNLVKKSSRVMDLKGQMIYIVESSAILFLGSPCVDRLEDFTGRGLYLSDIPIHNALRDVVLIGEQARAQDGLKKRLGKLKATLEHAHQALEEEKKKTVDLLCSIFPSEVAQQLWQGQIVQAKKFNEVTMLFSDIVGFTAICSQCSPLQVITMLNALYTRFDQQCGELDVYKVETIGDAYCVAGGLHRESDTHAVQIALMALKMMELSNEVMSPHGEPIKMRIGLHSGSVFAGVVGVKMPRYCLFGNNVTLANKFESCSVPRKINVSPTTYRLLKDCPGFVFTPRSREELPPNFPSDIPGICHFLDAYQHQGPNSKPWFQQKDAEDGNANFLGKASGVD
Procedure: B-1. Effect on a Recombinant Guanylate Cyclase Reporter Cell Line
The cellular activity of the compounds according to the invention was determined using a recombinant guanylate cyclase reporter cell line, as described in F. Wunder et al., Anal. Biochem. 339, 104-112 (2005).

[2] = Pharmacokinetic parameters following oral administration in rats; type: in vivo, male Wistar rats; settings: for F: bioavailability
Procedure: (§1) B-5. Determination of Pharmacokinetic Parameters Following Intravenous and Oral Administration
(§2) The pharmacokinetic parameters of the compounds according to the invention were determined in male Wistar rats and/or in female beagles and/or in cynomolgus monkeys and/or in male CD-1 mice. Intravenous administration in the case of mice and rats was carried out by means of a species-specific plasma/DMSO formulation, and in the case of dogs and monkeys by means of a water/PEG400/ethanol formulation. In all species, oral administration of the dissolved substance was performed via gavage, based on a water/PEG400/ethanol formulation.
(§3) An internal standard (which may also be a chemically unrelated substance) was added to the samples of the compounds of the invention, calibration samples and qualifiers, and there followed protein precipitation by means of acetonitrile in excess. Addition of a buffer solution matched to the LC conditions, and subsequent vortexing, was followed by centrifugation at 1000 g. The supernatant was analysed by LC-MS/MS using C18 reversed-phase columns and variable mobile phase mixtures. The substances were quantified via the peak heights or areas from extracted ion chromatograms of specific selected ion monitoring experiments.
(§4) The plasma concentration/time plots determined were used to calculate the pharmacokinetic parameters such as AUC, Cmax, t1/2 (terminal half-life), F (bioavailability), MRT (mean residence time) and CL (clearance), by means of a validated pharmacokinetic calculation program.
(§5) Since the substance quantification was performed in plasma, it was necessary to determine the blood/plasma distribution of the substance in order to be able to adjust the pharmacokinetic parameters correspondingly. For this purpose, a defined amount of substance was incubated in K3 EDTA whole blood of the species in question in a rocking roller mixer for 20 min. After centrifugation at 1000 g, the plasma concentration was measured (by means of LC-MS/MS; see above) and determined by calculating the ratio of the Cblood/Cplasma value.

[3] = Pharmacokinetic parameters following intravenous administration in rats; type: in vivo, male Wistar rats
Procedure: as §1, §2, §3, §4, §5

Compound	MEC [1]	AUCnorm [2]	F [2]	Half live in comparison to example 174 in WO 2012/058132 ([3]; after i.v. application)	mean residence time (MRT) in comparison to example 174 in WO 2012/058132 ([3]; after i.v. application)	AUCnorm ([3]; intravenous administration)	EC50 ([1]; half maximal effective concentration)	MRT ([2]; male, Wistar, rat, plasma, read-out: MRT)	half-life ([2]; male, Wistar, rat, plasma, read-out: t½ (converted))	MRT ([3]; male, Wistar, rat, plasma, intravenous administration)	clearance ([3]; male, Wistar, rat, plasma, intravenous administration, read-out: CLplasma (converted))	half-life ([3]; male, Wistar, rat, plasma, intravenous administration, read-out: t½ (converted))	MRT [2]
O=C(O)c1cnn(C2CCCN(c3cc(Cl)ccc3-c3ccc(N4CCN(CC(F)(F)F)CC4)cc3)C2)c1C(F)F (single isomer, unassigned; enantiomer 1) [Example 20, 1-[1-[5-Chloro-2-[4-[4-(2,2,2-trifluoroethyl)piperazin-1-yl]phenyl]phenyl]-3-piperidyl]-5-(difluoromethyl)pyrazole-4-carboxylic acid (Enantiomer 1)]	1.6 nM	2.11 kg·h/L	91.7%	longer	longer	2.29 kg·h/L	–	–	–	–	–	–	–
O=C(O)c1cnn(C2CCCN(c3cc(Cl)ccc3-c3ccc(N4CCN(CC(F)F)CC4)cc3)C2)c1C(F)F (single isomer, unassigned; enantiomer 2) [Example 19, 1-[1-{4-Chloro-4′-[4-(2,2-difluoroethyl)piperazin-1-yl][biphenyl]-2-yl}piperidin-3-yl]-5-(difluoromethyl)-1H-pyrazole-4-carboxylic acid hydrochloride (Enantiomer 2)]	0.3 nM	0.25 kg·h/L	8.01%	–	–	3.09 kg·h/L	1.9 nM	7.46 h	279 min	5.66 h	5.33 mL/min/kg	254 min	–
O=C(O)c1cnn(C2CCCN(c3cc(Cl)ccc3-c3ccc(N4CCN(CC5CC5)CC4)cc3)C2)c1C(F)F (single isomer, unassigned; enantiomer 2) [Example 11, 1-(1-{4-Chloro-4′-[4-(cyclopropylmethyl)piperazin-1-yl] [biphenyl]-2-yl}piperidin-3-yl)-5-(difluoromethyl)-1H-pyrazole-4-carboxylic acid hydrochloride (Enantiomer 2)]	<0.3 nM	0.70 kg·h/L	58.2%	–	–	1.23 kg·h/L	–	–	–	–	–	–	–
O=C(O)c1cnn(C2CCCN(c3cc(Cl)ccc3-c3ccc(N4CCN(CC(F)(F)F)CC4)cc3)C2)c1C(F)F (single isomer, unassigned; enantiomer 2) [Example 21, 1-[1-[5-Chloro-2-[4-[4-(2,2,2-trifluoroethyl)piperazin-1-yl]phenyl]phenyl]-3-piperidyl]-5-(difluoromethyl)pyrazole-4-carboxylic acid (Enantiomer 2)]	1.6 nM	4.04 kg·h/L	56.1%	–	–	7.23 kg·h/L	–	–	–	–	–	–	–
O=C(O)c1cnn(-c2cccc(-c3cc(Cl)ccc3-c3ccc(N4CCN(CC5CC5)CC4)cc3)n2)c1C(F)(F)F [174 (WO2012/058132), reference compound]	–	0.63 kg·h/L	81.8%	–	–	0.77 kg·h/L	–	–	–	–	–	–	8.41 h
CCCN1CCN(c2ccc(-c3ccc(Cl)cc3N3CCCC(n4ncc(C(=O)O)c4C(F)F)C3)cc2)CC1 (single isomer, unassigned; enantiomer 2) [Example 5, 1-{1-[4-Chloro-4′-(4-propylpiperazin-1-yl)[biphenyl]-2-yl]piperidin-3-yl}-5-(difluoromethyl)-1H-pyrazole-4-carboxylic acid hydrochloride (Enantiomer 2)]	0.3 nM	0.84 kg·h/L	59.9%	–	–	1.40 kg·h/L	–	–	–	–	–	–	–
